Assay results reported in article PMC9740255 (Cells, 2022).
Like-named read-outs stand apart in the source and are kept apart here.

How the values were obtained:
[1] = molecular target: T1, purified, full length dDAT (Drosophila melanogaster, UniProt Q7K4Y6); assay: Competitive inhibition of [3H]nisoxetine binding to purified dDAT by scintillation proximity assay (SPA)
T1 construct: Full length dDAT with a C-terminal thrombin cleavage site followed by a His8-tag; made in house; host or cells: Expi293F suspension cells transduced with BacMam baculovirus (virus produced in Sf9)
T1 sequence (Q7K4Y6 whole entry): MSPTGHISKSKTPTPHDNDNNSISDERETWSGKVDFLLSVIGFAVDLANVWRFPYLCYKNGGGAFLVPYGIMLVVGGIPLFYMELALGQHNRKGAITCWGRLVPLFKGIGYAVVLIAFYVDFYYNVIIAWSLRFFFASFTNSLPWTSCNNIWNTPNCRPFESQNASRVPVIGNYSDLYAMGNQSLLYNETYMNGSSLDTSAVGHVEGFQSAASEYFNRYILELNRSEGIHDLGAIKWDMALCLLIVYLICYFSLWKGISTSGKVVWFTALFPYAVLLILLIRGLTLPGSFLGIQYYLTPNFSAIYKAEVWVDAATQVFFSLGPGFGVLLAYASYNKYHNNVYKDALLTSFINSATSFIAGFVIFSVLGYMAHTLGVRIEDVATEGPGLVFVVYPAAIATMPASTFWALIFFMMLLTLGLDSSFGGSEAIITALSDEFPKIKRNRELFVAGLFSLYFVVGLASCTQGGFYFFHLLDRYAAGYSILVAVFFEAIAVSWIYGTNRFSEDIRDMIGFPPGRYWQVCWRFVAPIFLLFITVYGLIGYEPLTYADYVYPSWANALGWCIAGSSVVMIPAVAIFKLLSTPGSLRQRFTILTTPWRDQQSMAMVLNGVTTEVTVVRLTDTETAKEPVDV
Method: (§1) Binding of substrates and inhibitors to purified dDAT was assessed through saturation and competition binding by scintillation proximity assay (SPA).
(§2) This mixture was incubated on rotation for 45 min in darkness at 4 °C. The dDAT-SPA buffer mixture was added to the wells along with 100 nM of the desired tritiated ligand (often at 10% specific activity) and the dilution series of the unlabelled competitor. […] The plates were sealed, mixed at RT for 1.5 h on an agitator and left to settle at RT for 30 min. […] Plates were stored at 4 °C overnight and recounted to ensure that the original data was obtained at equilibrium. All experiments were performed in triplicates.
(§3) All statistical tests and data analyses were performed in GraphPad Prism 9 (GraphPad Software, Prism 9 version 9.2.0, San Diego, CA, USA). Unless otherwise specified, all data points are given as mean ± SEM (standard error of the mean) or mean [SEM interval]. Data obtained from competition binding analyses were fitted as a non-linear regression (curve fit) through an inhibitory dose–response model (variable slope), otherwise known as a four-parameter logistic equation. The non-specific binding condition was subtracted before fitting the data. From the logIC50, the IC50 can be obtained and, therefore, the affinity (Ki) derived through the Cheng-Prusoff equation. For homologous competitive binding, whereby the same compound is used as both the labelled and unlabelled ligand, the Cheng-Prusoff equation can be converted to obtain the Kd. Data plotted as a percentage of the control (absence of the competitive ligand) unless otherwise stated, i.e., normalized to the Bmax determined from the sigmoidal fit. Saturation binding data were fitted after subtracting the non-specific binding from each condition. The data were fitted as a non-linear regression (curve fit) through a sigmoidal dose–response (variable slope) model to determine the Kd. Ion binding study data were plotted using the same four-parameter logistic equation. […] The saturation curves on each plate were fitted with a globally shared Bmax value to enable estimation of low affinity constants.

[2] = molecular target: T2, hNET expressed in COS-7 cells (Homo sapiens, UniProt P23975); assay: Competition binding of [3H]nisoxetine in COS-7 cells expressing hNET; settings: hNET in COS-7 cells; competitive inhibition of [3H]nisoxetine binding; mean [SEM interval]; read-out: NET Ki
T2 construct: expressed in transfected cells; host or cells: COS-7 cells, transient transfection
T2 sequence (P23975 whole entry): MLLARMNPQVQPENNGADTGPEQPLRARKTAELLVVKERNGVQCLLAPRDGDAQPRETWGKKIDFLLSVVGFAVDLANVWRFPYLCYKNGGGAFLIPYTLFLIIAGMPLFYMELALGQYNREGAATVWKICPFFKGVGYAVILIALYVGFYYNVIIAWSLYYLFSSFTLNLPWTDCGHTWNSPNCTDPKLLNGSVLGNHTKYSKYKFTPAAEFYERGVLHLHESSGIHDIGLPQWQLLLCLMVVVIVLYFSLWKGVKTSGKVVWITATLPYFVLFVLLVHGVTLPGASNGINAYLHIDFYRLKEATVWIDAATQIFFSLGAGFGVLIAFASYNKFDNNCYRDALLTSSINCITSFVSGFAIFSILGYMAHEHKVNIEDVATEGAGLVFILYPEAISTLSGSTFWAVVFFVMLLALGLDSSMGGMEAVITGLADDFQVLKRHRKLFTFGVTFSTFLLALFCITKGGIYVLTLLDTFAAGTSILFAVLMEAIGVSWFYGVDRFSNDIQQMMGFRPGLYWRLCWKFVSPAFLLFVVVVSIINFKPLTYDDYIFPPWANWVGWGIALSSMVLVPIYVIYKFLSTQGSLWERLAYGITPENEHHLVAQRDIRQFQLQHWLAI
Method: (§4) Competition binding assays were performed directly in the culture dish 48 h after transfection of the cells. The competition binding experiments were carried out at room temperature (RT). […] All experiments were performed in triplicates.
(§5) All statistical tests and data analyses were performed in GraphPad Prism 9 (GraphPad Software, Prism 9 version 9.2.0, San Diego, CA, USA). Unless otherwise specified, all data points are given as mean ± SEM (standard error of the mean) or mean [SEM interval]. Data obtained from competition binding analyses were fitted as a non-linear regression (curve fit) through an inhibitory dose–response model (variable slope), otherwise known as a four-parameter logistic equation. The non-specific binding condition was subtracted before fitting the data. From the logIC50, the IC50 can be obtained and, therefore, the affinity (Ki) derived through the Cheng-Prusoff equation. For homologous competitive binding, whereby the same compound is used as both the labelled and unlabelled ligand, the Cheng-Prusoff equation can be converted to obtain the Kd. Data plotted as a percentage of the control (absence of the competitive ligand) unless otherwise stated, i.e., normalized to the Bmax determined from the sigmoidal fit. Saturation binding data were fitted after subtracting the non-specific binding from each condition. […]

[3] = molecular target: T3, dDAT expressed in COS-7 cells (Drosophila melanogaster, UniProt Q7K4Y6); assay: Competition binding of [3H]nisoxetine in COS-7 cells expressing dDAT
T3 construct: Full length dDAT with a C-terminal thrombin cleavage site followed by a His8-tag; expressed in transfected cells; host or cells: COS-7 cells, transient transfection
T3 sequence (Q7K4Y6 whole entry): as the sequence (Q7K4Y6 whole entry) above
Method: (§6) COS-7 cells (a generous gift from Prof. U. Gether, Univ. of Copenhagen) were transiently transfected in Opti-MEM media (ThermoFisher Scientific, Waltham, MA, USA) using lipofectamine 3000 (ThermoFisher Scientific, Waltham, MA, USA) with 0.36 µg hDAT in the pcDNA3.1 vector, 0.36–0.47 µg hNET in the pcDNA3.1 vector or 0.83–1.6 µg dDAT in pEG BacMam vector per 10^6 cells, in a lipofectamine:DNA (w/w) ratio of 3.5. Cells were seeded in 24-well plates (5 × 10^4/well) coated with poly-ornithine and incubated in 10% CO2 at 37 °C in DMEM media supplemented with 1% FBS.
as §4, §3

[4] = tested on: dDAT stably transfected into MDCK cells; parameters: method as in ref 25 (Pörzgen et al. 2001); settings: uptake inhibition of [3H]dopamine, ref 25 (Pörzgen et al. 2001); cited from earlier work
hNET [5] = molecular target: hNET; parameters: method as in ref 32 (Tatsumi et al. 1997); settings: footnote a: hNET in HEK293 cells, [3H]nisoxetine; ref 32 (Tatsumi et al. 1997); read-out: NET Ki; cited from earlier work
hDAT [6] = settings: read-out: DAT Ki; footnote a: hDAT in HEK293 cells, [3H]CFT; ref 32 (Tatsumi et al. 1997); cited from earlier work
hDAT [7] = molecular target: hDAT; parameters: method as in ref 35 (Owens et al. 2001); settings: footnote e: hDAT in HEK293 cells, [125I]RTI-55; ref 35 (Owens et al. 2001); read-out: DAT Ki; cited from earlier work
hNET [8] = molecular target: hNET; parameters: method as in ref 35 (Owens et al. 2001); settings: footnote e: hNET in HEK293 cells, [3H]nisoxetine; ref 35 (Owens et al. 2001); read-out: NET Ki; cited from earlier work
[9] = molecular target: T4, purified dDAT (dDAT-His8) (Drosophila melanogaster, UniProt Q7K4Y6); assay: Homologous competitive [3H]mazindol binding to purified dDAT (SPA)
T4 construct: Full length dDAT with a C-terminal thrombin cleavage site followed by a His8-tag; made in house; host or cells: Expi293F suspension cells transduced with BacMam baculovirus (virus produced in Sf9)
T4 sequence (Q7K4Y6 whole entry): as above
Method: as §1, §2
as §5, with “condition. The data were fitted as a non-linear regression (curve fit) through a sigmoidal dose–response (variable slope) model to determine the Kd. Ion binding study data were plotted using the same four-parameter logistic equation.” for “condition.”

[10] = molecular target: T5, hDAT expressed in COS-7 cells (Homo sapiens, UniProt Q01959); assay: Competition binding of [3H]CFT in COS-7 cells expressing hDAT; settings: hDAT in COS-7 cells; competitive inhibition of [3H]CFT binding; mean [SEM interval]; read-out: DAT Ki
T5 construct: expressed in transfected cells; host or cells: COS-7 cells, transient transfection
T5 sequence (Q01959 whole entry): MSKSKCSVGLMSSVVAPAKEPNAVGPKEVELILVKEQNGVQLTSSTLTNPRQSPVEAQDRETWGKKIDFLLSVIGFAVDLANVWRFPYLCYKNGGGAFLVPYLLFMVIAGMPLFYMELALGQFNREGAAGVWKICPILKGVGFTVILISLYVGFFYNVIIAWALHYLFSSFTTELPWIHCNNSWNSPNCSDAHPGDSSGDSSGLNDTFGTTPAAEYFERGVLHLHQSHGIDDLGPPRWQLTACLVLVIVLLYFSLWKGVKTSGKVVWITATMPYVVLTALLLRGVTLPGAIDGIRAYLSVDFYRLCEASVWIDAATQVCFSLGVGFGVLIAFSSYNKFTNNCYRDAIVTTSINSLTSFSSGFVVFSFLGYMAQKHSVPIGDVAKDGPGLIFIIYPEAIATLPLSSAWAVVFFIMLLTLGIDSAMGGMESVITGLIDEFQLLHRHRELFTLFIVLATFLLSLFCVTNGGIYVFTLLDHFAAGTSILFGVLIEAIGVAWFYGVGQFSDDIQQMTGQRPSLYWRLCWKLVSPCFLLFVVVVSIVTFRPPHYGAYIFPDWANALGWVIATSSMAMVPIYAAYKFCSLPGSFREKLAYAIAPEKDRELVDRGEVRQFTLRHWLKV
Method: as §6, §4
All statistical tests and data analyses were performed in GraphPad Prism 9 (GraphPad Software, Prism 9 version 9.2.0, San Diego, CA, USA). Unless otherwise specified, all data points are given as mean ± SEM (standard error of the mean) or mean [SEM interval]. […] Data plotted as a percentage of the control (absence of the competitive ligand) unless otherwise stated, i.e., normalized to the Bmax determined from the sigmoidal fit. […]

[11] = molecular target: T4, purified dDAT (dDAT-His8); assay: Saturation binding of [3H]nisoxetine to purified dDAT (SPA)
Method: as §1
All experiments were performed in triplicates.
as §5

DAT = molecular target: DAT; parameters: method as in ref 34 (Cao et al. 2016); settings: footnote d: rat caudate putamen membranes, [3H]CFT; ref 34 (Cao et al. 2016); cited from earlier work
NET = molecular target: NET; parameters: method as in ref 33 (Agoston et al. 1997); settings: footnote c: [3H]unknown ligand for NET; ref 33 (Agoston et al. 1997); cited from earlier work
[12] = dDAT in COS-7 cells, competitive inhibition of [3H]nisoxetine binding, mean [SEM interval]

| Structure (SMILES) | Ki ([1]; read-out: dDAT Ki) [µM] | IC50 [4] [µM] | further results |
| --- | --- | --- | --- |
| COC(=O)[C@H]1[C@@H](c2ccc(F)cc2)C[C@@H]2CC[C@H]1N2C [CFT] | 25 | – | Ki [2]: 0.357 µM; Ki [3, 12]: 3.9 µM |
| COC(=O)[C@H]1[C@@H](OC(=O)c2ccccc2)C[C@@H]2CC[C@H]1N2C [Cocaine] | 20 | 2.66 ± 0.23 | Ki (hNET [5]): 1.42 ± 0.05 µM |
| CN(C)CCC=C1c2ccccc2CCc2ccccc21 [Amitriptyline] | 0.097 | 0.03 ± 0.001 | Ki (hDAT [6]): 3.25 ± 0.02 µM |
| CN(C)CCC[C@@]1(c2ccc(F)cc2)OCc2cc(C#N)ccc21 [S-citalopram] | 24 | 8.1 ± 2.1 | Ki (hDAT [7]): 27.4 ± 3.11 µM; Ki (hNET [8]): 7.84 ± 0.998 µM |
| OC1(c2ccc(Cl)cc2)c2ccccc2C2=NCCN21 (stereo not drawn) [Mazindol] | 2.8 | 0.0044 ± 0.0022 | Ki ([1]; Ki, first (higher affinity) binding population of biphasic curve, [3H]nisoxetine displacement, T = 2 h at RT, two-site fit, representative dataset, estimated): 0.0002 µM; Ki ([1]; read-out: Ki, second (lower affinity) binding population of biphasic curve, [3H]nisoxetine displacement, T = 2 h at RT, two-site fit, representative dataset, estimated): 0.402 µM; IC50 [9]: 0.025 µM; Kd [9]: 13 µM; IC50 ([9]; read-out: IC50, second (lower affinity) binding population of biphasic curve, homologous [3H]mazindol competition, biphasic dataset T = 16 h, two-site fit, estimated): 79 µM; Ki (hNET [5]): 0.00045 ± 3e-05 µM |
| COC(=O)[C@H]1C(c2ccc(I)cc2)C[C@@H]2CC[C@H]1N2C (stereo partly drawn) [RTI-55] | 0.13 | 0.066 ± 0.01 | Ki [10]: 0.0005 µM; Ki [2]: 0.004 µM; Ki [3, 12]: 0.299 µM |
| C[C@H](N)Cc1ccccc1 [D-amphetamine] | 18 | 6.6 ± 0.9 | – |
| CNCCC(Oc1ccccc1OC)c1ccccc1 (stereo not drawn) [Nisoxetine] | – | 0.0056 ± 0.0022 | Kd [11]: 0.031 µM; Kd [3]: 0.07 µM |
| Fc1ccc([C@@H]2CCNC[C@H]2COc2ccc3c(c2)OCO3)cc1 [Paroxetine] | 0.322 | 0.022 ± 0.004 | – |
| CN[C@@H](C)Cc1ccccc1 [Methamphetamine] | 13 | – | Ki (hDAT [6]): 2.8 ± 0.1 µM; Ki (hNET [5]): 0.66 ± 0.02 µM |
| [O-][S+](CCN1CCN(CC(O)Cc2ccccc2)CC1)C(c1ccc(F)cc1)c1ccc(F)cc1 (stereo not drawn) [JJC8-088] | 33 | – | Ki (DAT): 0.00253 ± 0.00025 µM |
| NC[C@H](O)c1ccc(O)c(O)c1 [Norepinephrine] | 184 | 49 ± 9 | Ki [3]: 68 µM |
| NC(=O)C[S+]([O-])C(c1ccccc1)c1ccccc1 (stereo not drawn) [Modafinil] | 554 | – | – |
| CC(NC(C)(C)C)C(=O)c1cccc(Cl)c1 (stereo not drawn) [Bupropion] | 7.5 | 48 ± 5 | – |
| CNCCC=C1c2ccccc2CCc2ccccc21 [Nortriptyline] | – | – | Ki (hDAT [6]): 1.14 ± 0.03 µM |
| CC(O)CN1CCN(CC[S+]([O-])C(c2ccc(F)cc2)c2ccc(F)cc2)CC1 (stereo not drawn) [JJC8-091] | 199 | – | – |
| CCCCN1[C@@H]2CC[C@H]1CC(OC(c1ccc(F)cc1)c1ccc(F)cc1)C2 (stereo partly drawn) [JHW007] | 3.1 | – | Ki (NET): 1.33 µM |
| NCCc1c[nH]c2ccc(O)cc12 [Serotonin] | 173 | 43 ± 7 | Ki (hDAT [6]): > 100 µM; Ki (hNET [5]): > 100 µM |
| CN(C)CCCN1c2ccccc2CCc2ccccc21 [Imipramine] | – | 0.03 ± 0.01 | – |
| NCCc1ccc(O)c(O)c1 [Dopamine] | – | 2.9 ± 0.5 | – |
